Consider two compounds from US6465455B1, “Benzamide derivatives for the treatment of diseases mediated by cytokines” (AstraZeneca AB, priority 1998, dated 2002).

Each structure is given as a SMILES string.

A word on the melting point: it is the temperature, or range, at which the solid turns liquid. For the compound `COc1ccc(C(=O)Nc2cc(NC(=O)c3cccc(N4CCOCC4)c3)ccc2Cl)cc1OC` [Example 4, N-[2-chloro-5-(3-morpholinobenzamido)phenyl]-3,4-dimethoxybenzamide], the melting point was 147.9 to 148.3 °C.

`CC(=O)Oc1ccc(C(=O)Nc2ccc(Cl)c(NC(=O)c3ccc(C#N)cc3)c2)cc1` [Example 14, N-[5-(4-acetoxybenzamido)-2-chlorophenyl]-4-cyanobenzamide] registered a melting point of 195 to 196 °C.
